Earlier results, collected in US20190046468A1 (SUN PHARMACEUTICAL INDUSTRIES LIMITED, priority 2017, published 2019).

Columns and labels:
[1] = in vivo
[2] = aqueous media and many other solvents including acetone

**Q.** For `COc1ccccc1OCC(O)CO` (centres unmarked) [Guaifenesin], which plasma half-life [1] is on record?
**A.** about 1 hour

**Q.** And the solubility [2]?
**A.** freely soluble
